For data set [1], the system named is SF3B1-K700E mutant-expressing BM cells. In words: ASC staining to detect inflammasome formation by flow cytometry, SF3B1-K700E BM cells. In kind it is cell-based, mice. The settings on record: treated 24 hours. As to the method:
Staining was carried out as described ([…], et al. J Immunol. 2015 194(1):455-62). Briefly, cell pellets were resuspended in 1 mL of prewarmed BD Permeabilization Buffer III, and incubated on ice for 30 minutes. Cells were washed 2× with staining buffer. Following washing, cells were stained with rabbit-anti-ASC primary antibodies at a 1:1500 dilution and incubated for 90 minutes. Cells were washed, stained with secondary antibodies at a dilution of 1:1500, and incubated for 45 minutes. Cells were washed, and sample acquisitions were carried out using a BD LSR II flow cytometer and FACSDiva software.
Background: A flow cytometer gives signals particle by particle.

In data set [2] the test system is SF3B1-K700E-expressing mutant BM cells. In words: ROS detection by flow cytometry, SF3B1-K700E BM cells. The class given is cell-based, mice. From the text: (§1) ROS were detected using CM-H2DCFDA and CellROX® Deep Red Reagent according to manufacturer's protocol (Life Technologies).
Data set [3] relates to normal BM-MNC. In words: Nuclear β-catenin confocal microscopy in normal BM-MNC. In kind it is cell-based, human. As to the method: (§2) MDS and normal donor BM-MNC and mouse BM cells were stained with 30×FAM-FLICA® Caspase-1 solution at a ratio of 1:30 for 2 hours at 37° C. Cells were washed and cytospins were generated using a 5 minutes centrifugation at 450 rpm. Slides were fixed at 37° C. for 10 minutes using BD Cytofix Fixation Buffer (BD Biosciences), and subsequently washed using PBS. Cells were permeabilized with 0.1% Triton X-100/2% BSA in PBS for 15 minutes at room temperature. After washing with PBS, cells were blocked using 2% BSA in PBS for 30 minutes at room temperature, and washed again. Cells were incubated with the appropriate primary antibody overnight (1:400 for NLRP3, 1:20 for β-catenin) at 4° C. The next day, cells were washed with PBS and incubated with the appropriate secondary antibodies (1:500) for 1 hour at room temperature. After washing, cells were covered with ProLong Gold Antifade Reagent with DAPI prior to the addition of a coverslip (Life Technologies). Co-localization of a-caspase-1 with NLRP3 inflammasome complexes was assessed using a Leica TCS SP5 AOBS Laser Scanning Confocal microscope (Leica Microsystems). Analysis of the inflammasome images was performed with Definiens Developer 2.0 (Definiens AG). The software was used to segment cells based on brightness and size thresholds, followed by a watershed segmentation algorithm. […]

Data set [4] deals with SF3B1-K700E mutant-expressing BM cells. The data set is described as follows: Nuclear β-catenin confocal microscopy, SF3B1-K700E BM cells. In kind it is cell-based, mice. The conditions noted are these: treated 24 hours. As to the method:
as §2

Data set [5] relates to U2AF1 S34F mutant expressing TF-1 cells. In words: Nuclear β-catenin confocal microscopy in U2AF1-S34F mutant cells. The class given is cell-based. The settings on record: treated 24 hours prior to staining.
The test system of data set [6] is U937 cells. The data set is described as follows: Nuclear β-catenin confocal microscopy in U937 cells. The conditions noted are these: 5 μg/mL, 24 hours, compared to untreated cells. In kind it is cell-based.
The subject of data set [7] is U937 cells. In words: S100A9 flow cytometry experiments in U937 cells (a-caspase-1/annexin-V). In kind it is cell-based. As to the method:
Monocytic U937 cells were treated with the indicated concentrations of rhS100A9 for 24 hours, or with 5 μg/mL rhS100A9 for the indicated time points. Subsequently, cells were stained with 30×FAM-FLICA® Caspase-1 solution at a ratio of 1:30 for 2 hours at 37° C. Cells were washed, resuspended in 1× binding buffer, and stained with Annexin-V:PE at a dilution of 1:30 for 15 minutes at room temperature. 1× binding buffer was added to a final volume of 350 μL. Sample acquisitions were carried out using a BD FACSCalibur flow cytometer (BD Biosciences). Data were analyzed using FlowJo 9.7.5 software.

For data set [8], the system named is BM cells isolated from WT mice. The data set is described as follows: a-caspase-1/NLRP3 confocal microscopy in WT mouse BM cells treated with rhS100A9. In kind it is cell-based. The conditions noted are these: 5 μg/mL, 24 hours. As to the method: (§3) MDS and normal donor BM-MNC and mouse BM cells were stained with 30×FAM-FLICA® Caspase-1 solution at a ratio of 1:30 for 2 hours at 37° C. Cells were washed and cytospins were generated using a 5 minutes centrifugation at 450 rpm. Slides were fixed at 37° C. for 10 minutes using BD Cytofix Fixation Buffer (BD Biosciences), and subsequently washed using PBS. Cells were permeabilized with 0.1% Triton X-100/2% BSA in PBS for 15 minutes at room temperature. After washing with PBS, cells were blocked using 2% BSA in PBS for 30 minutes at room temperature, and washed again. Cells were incubated with the appropriate primary antibody overnight (1:400 for NLRP3, 1:20 for β-catenin) at 4° C. The next day, cells were washed with PBS and incubated with the appropriate secondary antibodies (1:500) for 1 hour at room temperature. After washing, cells were covered with ProLong Gold Antifade Reagent with DAPI prior to the addition of a coverslip (Life Technologies). Co-localization of a-caspase-1 with NLRP3 inflammasome complexes was assessed using a Leica TCS SP5 AOBS Laser Scanning Confocal microscope (Leica Microsystems). Analysis of the inflammasome images was performed with Definiens Developer 2.0 (Definiens AG). The software was used to segment cells based on brightness and size thresholds, followed by a watershed segmentation algorithm. Intensity values and Pearson's correlation coefficient were extracted from the segmented cells. For β-catenin image analysis, confocal images were imported into Definiens Tissue Studio v3.0, 64 Dual in .tif format. Cells were separated from background using the RGB thresholds. Nuclei were identified by setting thresholds in the DAPI channel. Typical cells averaged 60 microns. The red intensity (β-catenin) in the nucleus and cytoplasm was established by setting thresholds to low, medium and high in the red channel on a scale of 0-255 in the red channel.

Data set [9] has as its system normal BM-MNC. The data set is described as follows: qPCR of pyroptosis-associated genes in normal BM-MNC treated with rhS100A9. The class given is cell-based, human. The settings on record: 1 μg/mL, 24 hours, n=2. As to the method:
PCR RNA was isolated from BM-MNC using the RNeasy Mini Kit (Qiagen). cDNA was produced using the iScript cDNA Synthesis Kit (Bio-Rad). Sequences for primers can be found in Table 1. GAPDH mRNA was used for transcript normalization. cDNA was amplified using the iQ SYBR Green Supermix and the CFX96 Real-Time PCR Detection System (Bio-Rad). PCR conditions were as follows: 10 minutes at 95° C., followed by 40 cycles of amplification (15 seconds at 95° C. and 1 minute at 60° C.). Relative gene expression was calculated using the […] method.

For data set [10], the system named is U937 cells. The data set is described as follows: NLRP3 inflammasome confocal microscopy in U937 cells. The class given is cell-based. The conditions noted are these: 5 μg/mL, 24 hours.
Data set [11] concerns U937 cells. In words: Pore formation, ethidium bromide uptake in U937 cells. The class given is cell-based. The settings on record: 5 μg/mL rhS100A9, 12.5 μg/mL ethidium bromide.
The test system of data set [12] is normal BM-MNC. The data set is described as follows: a-caspase-1/NLRP3 confocal microscopy in normal BM-MNC treated with rhS100A9. In kind it is cell-based, human. The settings on record: 5 pig/mL rhS100A9, 24 hours. As to the method:
as §3

Data set [13] concerns U937 cells. In words: ROS detection by flow cytometry in U937 cells. In kind it is cell-based. The settings on record: 5 μg/mL, 24 hours, compared to untreated cells.
Description: as §1

Data set [14] relates to U937 cells. In words: Comet assay (DNA damage) in U937 cells. In kind it is cell-based. The settings on record: 5 μg/mL, 24 hours, compared to untreated cells. As to the method: Monocytic U937 cells were treated with 5 μg/mL rhS100A9 for 24 hr.
DNA damage was measured by single cell gel electrophoresis using alkaline CometAssay® according to manufacturer's protocol (Trevigen Inc.).

Turning to `CC(=O)N[C@@H](CS)C(=O)O` [NAC, N-acetylcysteine], the “inflammasome formation (ASC oligomerization)” value in [1] is reported as “significantly reduced”. Further, in data set [2], the “ROS MFI” value is “extinguished below the level of WT controls” and the “mean percentage of ROS+ cells” value is reported as “extinguished below the level of WT controls”. In addition, the “S100A9-triggered nuclear translocation of β-catenin” value in the data set on normal BM-MNC [3] (S100A9 treated normal BM-MNC) is reported as “abolished”. For the same compound, the “percentage of cells with elevated levels of nuclear β-catenin” value in [4] is recorded as “significantly reduced”. Further, the “β-catenin activation (nuclear β-catenin)” value in data set [5] was “effectively reduced β-catenin activation”.

Take `c1ccc2c(c1)[I+]c1ccccc1-2` [DPI]: the “inflammasome formation (ASC oligomerization)” value in data set [1] is “significantly reduced”. For the same compound, in data set [2], the “ROS MFI” value is “extinguished below the level of WT controls” and the “mean percentage of ROS+ cells” value is reported as “extinguished below the level of WT controls”. The “percentage of cells with elevated levels of nuclear β-catenin” value in data set [4] is on record as “significantly reduced”. For the same compound, the “β-catenin activation (nuclear β-catenin)” value in [5] was “effectively reduced β-catenin activation”.

Consider “rhS100A9: recombinant human S100A9, DAMP/alarmin protein, TLR4 and CD33 ligand”, for which, in the data set with U937 cells [6], the “levels of nuclear (activated) β-catenin” value was “marked increases”. Also, in the data set with U937 cells [7] (5 μg/mL, over time), the “activation of caspase-1” value is “time-dependent increase”. For the same compound, in the data set with U937 cells [7] (increasing concentrations, 24 hours), the “fraction of pyroptotic cells” value is listed as “concentration-dependent increase”. In data set [8] (p=0.023), the inflammasome complexes entry was “marked induction”. Besides, the “MFI of NLRP3” value in data set [8] (versus controls, p=0.017) is recorded as “significantly increased”. In addition, in data set [8] (versus controls, p=7.5×10^−3), the “MFI of a-caspase-1” value was “significantly increased”. For the same compound, in the data set on normal BM-MNC [9], the “expression of pyroptosis-associated genes” value was “significantly up-regulated”. Also, the “levels of nuclear β-catenin” value in the data set with normal BM-MNC [3] (5 μg/mL, 24 hours, compared to controls) is on record as “elevated levels”. The “levels of NLRP3 inflammasome complexes” value in the data set on U937 cells [10] was “markedly increased”. In the data set with U937 cells [11], the “uptake of ethidium bromide” value is “rapid and substantial uptake”. In the data set with normal BM-MNC [12], the a-caspase-1 levels induced stood at 2.5 fold and the “formation of NLRP3 inflammasomes induced” value is reported as 2.9 fold. The NLRP3 levels induced with normal BM-MNC [12] (p=0.064) was 47.1 fold. Also, the “increase in the mean percentage of ROS-positive cells” value with U937 cells [13] is 2.9 fold. Further, the “increase in DNA damage” value with U937 cells [14] is 4.1 fold.

Values taken from patent publication US10688077B2, “Inflammasome activation in myelodysplastic syndromes” (H. Lee Moffitt Cancer Center and Research Institute, Inc., priority 2015, dated 2020).
